Assay results as given in US20150216865A1, “METHODS OF TREATING A BRUTON'S TYROSINE KINASE DISEASE OR DISORDER” (Celgene Avilomics Research, Inc., priority 2012, published 2015).
Read-outs that look alike come from different tables or passages of the source. Marks after values point to notes of the source that are not given here.

Experiments:
[1] = test system: male NOD mice; assay: NOD mouse model, salivary gland histopathology; format: in vivo; conditions: 20 weeks of age
Text: Histopathology. Samples of lachrymal gland and salivary glands from all animals were fixed for Haematoxylin & Eosin histological analysis. Sections were inspected blind by a qualified histopathologist and scored for signs of pathology according to a semi-quantitative scoring system. This system is based on the mean number of inflammatory foci comprising 50 or more mononuclear inflammatory cells per objective field. The ratio of infiltrated to normal glandular tissue was expressed on a five point scale.
(i) Focus Score. The mean number of inflammatory foci comprising ≧50 mononuclear inflammatory cells per ×10 objective field was counted. Five such fields were assessed (where possible) to derive this index and these are selected to contain the maximum number of such foci. Where the overall area of the tissue section was less than five fields, the number of ×10 objective fields was recorded and used to determine the focus score. (ii) Area Score. The ratio of infiltrated to normal glandular tissue was expressed on a five point scale: • 0: No infiltrates • 1: 0-25% of the tissue section infiltrated • 2: 26-50% of the tissue section infiltrated • 3: 51-75% of the tissue section infiltrated • 4: 76-100% of the tissue section infiltrated
Salivary Gland Histopathology. […] Sections were examined and scored for two criteria: Focus Score and Area Score as outlined above.

[2] = target: Btk (Homo sapiens, UniProt Q06187); assay: Clinical single dose study, Btk occupancy in enriched B cells (covalent probe ELISA); format: in vivo
Btk, sequence (Q06187 whole entry): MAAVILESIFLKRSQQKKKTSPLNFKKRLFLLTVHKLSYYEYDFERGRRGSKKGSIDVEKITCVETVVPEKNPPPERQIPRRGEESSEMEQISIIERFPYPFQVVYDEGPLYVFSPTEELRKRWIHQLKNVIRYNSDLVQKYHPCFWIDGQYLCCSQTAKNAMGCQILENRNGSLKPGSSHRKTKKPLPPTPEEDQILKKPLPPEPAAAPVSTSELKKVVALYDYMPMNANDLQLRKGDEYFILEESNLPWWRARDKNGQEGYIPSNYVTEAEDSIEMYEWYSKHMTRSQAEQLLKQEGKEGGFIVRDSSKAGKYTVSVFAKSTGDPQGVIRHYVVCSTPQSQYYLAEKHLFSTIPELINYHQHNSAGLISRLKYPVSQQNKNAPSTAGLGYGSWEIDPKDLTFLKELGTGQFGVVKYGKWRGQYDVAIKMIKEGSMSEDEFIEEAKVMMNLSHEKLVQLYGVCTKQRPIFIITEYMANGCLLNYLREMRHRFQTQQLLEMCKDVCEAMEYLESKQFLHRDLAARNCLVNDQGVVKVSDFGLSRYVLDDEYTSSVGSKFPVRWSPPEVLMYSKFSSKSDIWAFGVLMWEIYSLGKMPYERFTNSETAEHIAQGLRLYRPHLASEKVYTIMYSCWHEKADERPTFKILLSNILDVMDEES
Experimental: Btk Target Site Occupancy ELISA: An ELISA method for the detection of free uninhibited Btk in mouse, rat, dog, monkey, and human lysates was developed at Celgene Avilomics Research and a validation of this method in human B cell lysate was performed by a CLIA Certified laboratory (Cambridge Biomedical Laboratories, Boston, Mass.) The parameters that were assessed included: accuracy, linearity, dilution, precision (intra and inter-assay), stability, reference range, freeze-thaw cycles, reportable range, specificity, sensitivity, and carryover. […] Standards and samples were transferred to a streptavidin-coated 96-well ELISA plate and mixed while shaking for 1 h at room temperature. […] After wash, goat α-mouse-HRP (1:5000 dilution in PBS+0.05% Tween-20+0.5% BSA) was added and incubated for 1 h at room temperature. The ELISA was developed with addition of tetramethyl benzidine (TMB) followed by Stop Solution and read at OD 450 nm.
(§1) Clinical Study: A double blind, placebo-controlled, ascending single dose, randomized study in normal healthy human volunteers was conducted at a single clinical research unit in accordance with Declaration of Helsinki principles. Informed consent statements were obtained from all subjects prior to inclusion in the study. Subjects were admitted to the unit 1 day before dosing and discharged 96 h after dosing.
Isolation of Enriched B Lymphocyte Population from Human Healthy Volunteers: 21 mL of human whole blood was collected from each subject at each time point into BD® Vacutainer® CPT Cell Preparation Tubes containing sodium heparin. […] Isolated cells were harvested into a clean 50 mL conical tube that was pooled by subject. […] Cell suspensions were diluted in 1 mL of red blood cell lysis buffer for 3 minutes at room temperature. […] The lysates were stored frozen at ≦−70° C. until Btk target site occupancy analysis by ELISA.

[3] = test system: male NOD mice; assay: NOD mouse model of Sjogren's syndrome, glycaemia / incidence of diabetes; format: in vivo
Experimental: Non-Obese Diabetic Mouse (NOD) Model of Sjogren's Syndrome. Male Non Obese Diabetic (NOD) mice from the KWS BioTest NOD colony and male BALB/c mice were randomly allocated to experimental groups and allowed to acclimatise for one week prior to the beginning of the study. From six weeks of age, animals were treated according to the administration schedule in Table 5, below. Each group consisted of n=12 animals. The administration volume was 15 ml/kg from 6-12 weeks of age. The administration volume was then decreased to 10 ml/kg from 13-20 weeks of age. The vehicle was distilled water pH 3.0-3.5 for Group 7. […] Glycaemia. From fourteen weeks of age, animals were monitored weekly for signs of hyperglycaemia. A blood sample was taken from a superficial vein and the blood glucose level was measured using Free Style Optium glucose test strips (Abbott) and a Boots glucose reader. Glycaemia. Blood glucose was monitored once per week from 14 weeks of age. Animals with glycaemia equal to or greater than 11 mM on two consecutive weekly readings were considered diabetic.

[4] = test system: IL-6; assay: Inflammatory chemokine and cytokine analysis in CIA mice, IL-6; format: in vivo, mouse
Text: Inflammatory Chemokine and Cytokine Analysis: At the termination of the CIA study, mice were sacrificed and blood was harvested via cardiac punch using EDTA as an anticoagulant. […] Levels of various mouse cytokines in plasma were quantified using Bioplex® Suspension Array System according to manufacturer's instruction (BioRad, mTNFa (171-G5023M), mIL-6 (171-G5007M), mKC (171-G5018M), mIFNg (171-G5017M), mIL-17 (Z60-00006Z2), mIL-1β (171-G5002M), mMCP-1 (171-G5019M).

[5] = Clinical single dose study in healthy human volunteers, pharmacokinetics; format: in vivo; conditions: single oral 2 mg/kg
Experimental: as §1

## C=CC(=O)Nc1cccc(Nc2nc(Nc3ccc(OCCOC)cc3)ncc2F)c1 [Compound 1 besylate, N-(3-(5-fluoro-2-(4-(2-methoxyethoxyl)phenylamino)pyrimidin-4-ylamino)phenyl)acrylamide besylate]
[1]
  salivary gland Area Score (proportion of infiltrated glandular tissue) vs vehicle: did not reduce
  salivary gland Focus Score (number of inflammatory foci) vs vehicle: did not reduce
[2]; 2 mg/kg, 4 hours, read-out: average cohort Btk occupancy (maximal)
  receptor occupancy at 2 mg/kg: > 97%
[2]; 2.0 mg/kg, all 6 subjects
  time complete or near-complete Btk occupancy was sustained: 8 to 24 h
[2]; 2.0 mg/kg, within 4 hours, read-out: Btk occupancy, 5 of 6 subjects
  receptor occupancy at 2 mg/kg: > 98%
[2]; 2.0 mg/kg, within 4 hours, read-out: Btk occupancy, 6th subject
  receptor occupancy at 2 mg/kg: 84%
[2]; after single oral 2.0 mg/kg
  average Btk re-synthesis rate: 3.0 pg Btk/ug protein/hour
[2]; within 96 hours
  free Btk protein levels recovered, % of pre-dose values: ~75%
[3]; 0.16 mg/kg ad libitum, age 18 weeks
  Incidence of Diabetes: 8% (1/12)
[3]; 0.16 mg/kg ad libitum, age 19 weeks
  Incidence of Diabetes: 17% (2/12)
[3]; 0.16 mg/kg ad libitum, age 20 weeks
  Incidence of Diabetes: 17% (2/12)
[3]; 10 mg/kg SID, age 18 weeks
  Incidence of Diabetes: 17% (2/12)
[3]; 10 mg/kg SID, age 19 weeks
  Incidence of Diabetes: 17% (2/12)
[3]; 10 mg/kg SID, age 20 weeks
  Incidence of Diabetes: 18% (2/11)
[3]; 30 mg/kg SID, age 18 weeks
  Incidence of Diabetes: 0
[3]; 30 mg/kg SID, age 19 weeks
  Incidence of Diabetes: 0
[3]; 30 mg/kg SID, age 20 weeks
  Incidence of Diabetes: 0
[3]; 50 mg/kg BID, age 18 weeks
  Incidence of Diabetes: 0
[3]; 50 mg/kg BID, age 19 weeks
  Incidence of Diabetes: 0
[3]; 50 mg/kg BID, age 20 weeks
  Incidence of Diabetes: 0
[3]; 100 mg/kg SID, age 18 weeks
  Incidence of Diabetes: 0
[3]; 100 mg/kg SID, age 19 weeks
  Incidence of Diabetes: 0
[3]; 100 mg/kg SID, age 20 weeks
  Incidence of Diabetes: 0
[4]; 3 mg/kg
  IL-6 mean: 15.4 pg/mL
[4]; 10 mg/kg
  IL-6 mean: 9.1* pg/mL
[4]; 30 mg/lkg
  IL-6 mean: 10.5* pg/mL
[5]; plasma, 6 subjects, read-out: mean maximum plasma concentration (Cmax)
  Cmax: 542 ng/mL
[5]; plasma, read-out: median terminal elimination half-life (converted)
  half-life: 1.9 h
[5]
  time to peak plasma concentrations: 30 to 120 min
[5]; all subjects
  plasma concentrations at 48 hours post dose: below the lower limit of quantification
[5]; limit of detection 0.1 ng/mL
  plasma concentrations within 24 hours post dose: near or below the lower limit of detection
